Measurements from US10813920B2, “Drug for treating corneal endothelium by promoting cell proliferation or inhibiting cell damage” (THE DOSHISHA, priority 2013, dated 2020).
Where a name gives a salt, the structure may show the parent alone. Residues, ends and D or L forms follow the SMILES beside them. *: point of attachment. Cbz = O=C(OCc1ccccc1)*; CH2F = FC*

Experiments:
[1] = system: cultured monkey corneal endothelial cells; assay: p38 MAPK activation induces apoptosis: Western blot in cultured monkey corneal endothelial cells; type: cell-based; settings: Western blot after 9 hours
Protocol: 1×10^5 cultured monkey corneal endothelial cells were seeded on a 12-well plate coated with an FNC Coating Mix and cultured for about 5 days until reaching confluence under the condition of 5% CO2 at 37° C. The medium used was Dulbecco's Modified Eagle Medium (Gibco, 12320-032), 10% FBS, 1% Penicillin-Streptomycin (nacalai tesque, 26252-94).
As acclimation treatment, Z-VAD (OMe)-FMK (Wako Pure Chemical Industries, Ltd. 269-02071) was then added at a concentration of 10 μM and the cells were incubated for 16 hours under the condition of 5% CO2 at 37° C. For the Control group and anisomysin group, a solvent of a reagent Dimethyl Sulfoxide (DMSO) (Dimethyl Sulfoxide, Sterile-filtered; nacalai tesque, 13408-64) was added. The medium used was Gibco DMEM, 1% P/S. The cellular supernatant was then removed, and anisomysin (Wako Pure Chemical Industries Ltd., 017-16861) was added to the anisomysin group and the anisomysin+Z-VAD-FMK group at a concentration of 10 μM. 10 μM of Z-VAD was added with anisomysin to the anisomysin+Z-VAD-FMK group. DMSO was added to the groups to which Z-VAD-FMK was not added. The cells were then cultured for 9 hours. The cellular form was observed under a phase difference microscope. A picture was taken after 9 hours.
After 9 hours, cell proteins were collected. The amount of protein expression was compared by Western blot. Anti-caspase 3 antibodies (cell signaling, 9662S), anti-p38 MAPK antibodies (cell signaling, #9212), and anti-pp38 MAPK antibodies (cell signaling, #4631S) were used as the antibodies. Further, anti-GAPDH antibodies (MBL, 3H12) were used as the internal standard.

[2] = water; hydrochloride salt; cited from earlier work

COC(=O)C[C@H](NC(=O)[C@H](C)NC(=O)[C@@H](NC(=O)OCc1ccccc1)C(C)C)C(=O)CF [Z-VAD-FMK] (Cbz-Val-Ala-Asp(OMe)-CH2F)
Caspase 3 activation induced by anisomycin ([1]; 10 μM Z-VAD-FMK with 10 μM anisomycin): suppressed

COc1ccc(C[C@H]2NC[C@H](O)[C@@H]2OC(C)=O)cc1 [anisomysin, (2R,3R,4S)-2-[(4-methoxyphenyl)methyl]-3,4-pyrrolidinediol-3-acetate]
Phosphorylation of p38 ([1]; 10 μM): observed
activation due to cleavage of caspase 3 ([1]; 10 μM): observed

C[S+]([O-])c1ccc(-c2nc(-c3ccncc3)c(-c3ccc(F)cc3)[nH]2)cc1 (stereo not shown) [SB203580 hydrochloride, 4-(4-fluorophenyl)-2-(4-methylsulfinylphenyl)-5-(4-pyridyl)-1H-imidazole]
water solubility [2]: water-soluble
